{"source": "patent US20240139326A1", "about": "“METHACRYLAMIDES PROTEIN BINDERS AND USES THEREOF” (YEDA RESEARCH AND DEVELOPMENT CO. LTD., priority 2020, published 2024)", "key": {"physchem": {"assay": "physchem", "details": "5 mM GSH in potassium phosphate buffer, pH 8"}, "Mino cells": {"system": "Mino cells", "assay": "In-gel fluorescence proteomic reactivity of alkyne probes", "format": "cell-based", "details": "Mino cells treated 2 h, clicked with TAMRA-azide", "description": "The samples were incubated at 25 degrees for 2 hours.\nMino cells were treated for two hours with either DMSO, IA-alkyne, or 2a-c. The cells were lysed, labeled the alkynes via copper-catalyzed “click chemistry” with TAMRA (Tetramethylrhodamine)-azide, and imaged the adducts via in-gel fluorescence (FIG. 8B). […] This may be the result of cellular esterases that hydrolyze the ester, leaving an unreactive substituted acrylamide^26. All of the acrylamides were markedly less reactive than IA-alkyne."}, "BTK kinase domain [1]": {"biological_target": "T1, BTK kinase domain (Homo sapiens (Human), UniProt Q06187)", "T1 sequence (Q06187 402-655)": "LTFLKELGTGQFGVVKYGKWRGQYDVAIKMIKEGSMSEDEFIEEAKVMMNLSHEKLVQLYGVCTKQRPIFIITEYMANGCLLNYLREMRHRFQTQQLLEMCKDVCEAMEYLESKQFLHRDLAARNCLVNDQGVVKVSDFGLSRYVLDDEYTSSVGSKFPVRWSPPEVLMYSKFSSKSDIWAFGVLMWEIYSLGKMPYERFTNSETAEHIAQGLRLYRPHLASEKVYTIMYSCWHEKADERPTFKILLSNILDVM", "protocol": "(§2) The reaction mixtures, at room temperature for various times, were injected into the LC/MS. For data analysis, the raw spectra were deconvoluted using a 20000:40000 Da window and 1 Da resolution. The signal from masses 20000:30000 and 33000:40000 (which contained no peaks) was averaged and subtracted from the whole signal."}, "BTK kinase domain [2]": {"biological_target": "T1, BTK kinase domain", "assay": "Kinetic labeling experiments of Ibrutinib derivatives with BTK (intact protein LC/MS)", "details": "for BTK Substitution/Addition: mechanism of BTK labeling; for labeling of BTK through the substitution mechanism: within 30 minutes", "protocol": "as §2"}, "wild-type BTK": {"biological_target": "wild-type BTK (Homo sapiens (Human), UniProt Q06187)", "sequence (Q06187 whole entry)": "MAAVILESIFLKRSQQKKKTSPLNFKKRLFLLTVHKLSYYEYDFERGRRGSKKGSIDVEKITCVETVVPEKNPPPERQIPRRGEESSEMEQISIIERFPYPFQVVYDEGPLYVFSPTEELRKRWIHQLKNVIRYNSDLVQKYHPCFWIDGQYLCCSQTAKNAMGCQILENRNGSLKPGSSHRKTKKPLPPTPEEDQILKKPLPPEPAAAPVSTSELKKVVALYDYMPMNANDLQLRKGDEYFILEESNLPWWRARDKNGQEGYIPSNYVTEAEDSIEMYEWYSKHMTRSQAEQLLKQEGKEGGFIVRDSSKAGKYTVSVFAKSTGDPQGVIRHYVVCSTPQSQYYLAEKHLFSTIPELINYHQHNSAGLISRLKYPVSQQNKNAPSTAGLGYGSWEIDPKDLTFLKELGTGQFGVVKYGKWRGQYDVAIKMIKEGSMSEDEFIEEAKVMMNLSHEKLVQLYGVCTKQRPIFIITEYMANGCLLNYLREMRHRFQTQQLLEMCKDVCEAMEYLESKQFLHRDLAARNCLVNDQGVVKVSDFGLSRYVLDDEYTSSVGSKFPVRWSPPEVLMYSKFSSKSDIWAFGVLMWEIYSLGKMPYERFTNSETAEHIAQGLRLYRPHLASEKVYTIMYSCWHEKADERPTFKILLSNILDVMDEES", "assay": "In vitro kinase activity assay for BTK (Nanosyn)", "format": "biochemical", "protocol": "The reaction was initiated by 2-fold dilution into a solution containing 5 μM ATP and substrate."}, "BSA": {"biological_target": "BSA (Bos taurus (Bovine), UniProt P02769)", "sequence (P02769 25-607 limits assumed)": "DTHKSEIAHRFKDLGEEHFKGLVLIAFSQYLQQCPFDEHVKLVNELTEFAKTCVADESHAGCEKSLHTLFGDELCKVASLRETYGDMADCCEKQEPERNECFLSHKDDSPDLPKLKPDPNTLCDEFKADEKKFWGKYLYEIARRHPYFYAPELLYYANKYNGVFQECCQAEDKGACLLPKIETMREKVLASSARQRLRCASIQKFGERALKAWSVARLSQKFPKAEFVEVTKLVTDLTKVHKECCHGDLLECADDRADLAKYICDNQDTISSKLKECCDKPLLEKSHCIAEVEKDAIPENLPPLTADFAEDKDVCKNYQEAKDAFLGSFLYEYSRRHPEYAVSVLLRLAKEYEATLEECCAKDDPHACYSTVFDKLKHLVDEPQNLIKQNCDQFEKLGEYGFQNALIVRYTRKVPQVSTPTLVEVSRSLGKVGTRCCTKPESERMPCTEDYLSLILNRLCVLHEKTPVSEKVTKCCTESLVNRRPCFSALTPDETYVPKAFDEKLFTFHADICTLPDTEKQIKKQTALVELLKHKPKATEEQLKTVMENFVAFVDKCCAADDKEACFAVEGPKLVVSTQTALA", "assay": "Turn-on fluorescence selectivity control with BSA", "format": "binding", "details": "10 μM BSA with 2 μM 3j"}, "BTK [3]": {"biological_target": "T2, BTK (Homo sapiens (Human), UniProt Q06187)", "T2 sequence (Q06187 2-659 limits assumed)": "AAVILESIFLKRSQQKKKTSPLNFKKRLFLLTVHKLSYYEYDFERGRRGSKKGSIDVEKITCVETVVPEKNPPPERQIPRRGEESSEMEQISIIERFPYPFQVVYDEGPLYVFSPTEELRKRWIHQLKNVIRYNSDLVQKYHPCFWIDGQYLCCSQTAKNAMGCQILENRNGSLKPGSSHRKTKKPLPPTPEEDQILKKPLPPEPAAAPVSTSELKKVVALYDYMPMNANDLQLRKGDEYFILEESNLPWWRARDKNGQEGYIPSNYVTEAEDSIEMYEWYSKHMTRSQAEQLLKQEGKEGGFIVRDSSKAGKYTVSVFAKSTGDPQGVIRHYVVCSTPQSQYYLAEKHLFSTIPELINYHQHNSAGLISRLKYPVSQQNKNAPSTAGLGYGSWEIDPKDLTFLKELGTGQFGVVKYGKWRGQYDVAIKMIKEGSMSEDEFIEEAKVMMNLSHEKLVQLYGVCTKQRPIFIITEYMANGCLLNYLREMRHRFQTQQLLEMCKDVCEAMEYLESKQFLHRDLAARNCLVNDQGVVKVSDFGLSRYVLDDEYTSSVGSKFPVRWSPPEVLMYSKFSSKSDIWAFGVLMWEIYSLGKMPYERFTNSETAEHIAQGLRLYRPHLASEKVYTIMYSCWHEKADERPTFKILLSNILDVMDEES", "assay": "Fluorescence intensity measurement of CoLDR turn-on probe with BTK", "format": "binding", "details": "2 μM probe, 2 μM BTK", "description": "(§1) Each condition was in triplicates in 20 mM Tris pH 8 50 mM NaCl for BTK and K-RAS^G12c, in 50 mM Tris pH 8.0, 100 mM NaCl for EGFR. fluorescent measurements were taken every 2 minutes for 2 hours for BTK and EGFR and every 10 minutes for 15 hours for K-RAS^G12c. […] K-Ras^G12C was expressed and purified as previously described^66, EGFR kinase domain was a generous gift from Prof. Michael Eck.\nThe fact that a specific leaving group is released as a function of selective binding of a target protein can be used to functionalize irreversible inhibitors, for example as turn-on fluorescent probes. To assess the applicability and generality of this approach three therapeutic targets were chosen for which acrylamide inhibitors are available: BTK, EGFR, and K-RAS^G12C as model systems. […] The rate of the reaction was […] by using 20:1 equivalents of protein:probe (FIG. 12). […] The release can also be inhibited by pre-incubation of BTK with Iodoacetamide alkyne (IAA; FIG. 13B)."}, "BTK [4]": {"biological_target": "T2, BTK", "assay": "Turn-on chemiluminescence of probe 3k with BTK", "format": "binding", "description": "Plate reader measurements were performed on Tecan Spark Control 10M fluorescent measurements using black 384 well plates with clear bottom.\nRecently, adamantylidene-dioxetane based chemiluminescent turn-on probes for the sensing and imaging of enzymes, reactive oxygen species, and other analytes were reported^28-32 These probes, upon activation by analytes, release a phenolate-dioxetane intermediate which subsequently decomposes with the emission of a photon in the visible spectrum (FIG. 3). […] The chemiluminescence light emission profile of probe 3k (FIG. 15A, Example 1) upon activation with BTK (2 μM) was measured in the absence and presence of BTK (FIG. 15B). The kinetic profile in the presence of BTK was typical of a chemiluminescent probe with an initial signal was increased to a maximum within 20 minutes, followed by a slow decrease."}, "EGFR [5]": {"biological_target": "T3, EGFR (Homo sapiens (Human), UniProt P00533)", "T3 sequence (P00533 25-1210 limits assumed)": "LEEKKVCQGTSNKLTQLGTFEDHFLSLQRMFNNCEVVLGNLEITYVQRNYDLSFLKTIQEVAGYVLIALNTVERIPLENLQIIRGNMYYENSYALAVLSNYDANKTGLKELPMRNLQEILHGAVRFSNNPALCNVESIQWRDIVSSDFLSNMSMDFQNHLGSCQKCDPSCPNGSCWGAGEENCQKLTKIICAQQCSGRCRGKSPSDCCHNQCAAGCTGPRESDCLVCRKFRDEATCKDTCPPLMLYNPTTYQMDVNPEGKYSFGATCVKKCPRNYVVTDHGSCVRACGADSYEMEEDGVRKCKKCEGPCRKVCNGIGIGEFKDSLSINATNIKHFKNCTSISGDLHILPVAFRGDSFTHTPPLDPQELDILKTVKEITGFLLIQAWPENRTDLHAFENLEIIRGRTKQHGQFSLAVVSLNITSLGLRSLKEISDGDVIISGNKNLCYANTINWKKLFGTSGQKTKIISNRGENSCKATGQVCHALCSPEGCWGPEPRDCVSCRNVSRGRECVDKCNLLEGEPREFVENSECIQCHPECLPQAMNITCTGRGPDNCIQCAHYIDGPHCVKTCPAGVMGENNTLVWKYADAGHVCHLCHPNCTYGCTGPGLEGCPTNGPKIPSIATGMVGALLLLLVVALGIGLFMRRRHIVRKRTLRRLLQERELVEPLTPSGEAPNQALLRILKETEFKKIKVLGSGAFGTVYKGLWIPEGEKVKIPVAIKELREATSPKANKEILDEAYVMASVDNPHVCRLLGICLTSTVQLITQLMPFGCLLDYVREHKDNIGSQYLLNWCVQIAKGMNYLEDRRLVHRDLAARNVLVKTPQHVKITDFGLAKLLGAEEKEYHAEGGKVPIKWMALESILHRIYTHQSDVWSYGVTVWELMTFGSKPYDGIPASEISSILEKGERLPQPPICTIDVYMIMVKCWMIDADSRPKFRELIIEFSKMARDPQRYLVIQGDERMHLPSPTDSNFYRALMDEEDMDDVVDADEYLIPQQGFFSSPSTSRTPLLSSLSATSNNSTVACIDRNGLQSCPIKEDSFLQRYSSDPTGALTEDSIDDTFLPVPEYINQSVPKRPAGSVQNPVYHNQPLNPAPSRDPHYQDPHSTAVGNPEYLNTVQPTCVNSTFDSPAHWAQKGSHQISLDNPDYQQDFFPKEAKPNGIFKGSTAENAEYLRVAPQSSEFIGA", "assay": "Fluorescence intensity measurement of CoLDR turn-on probe with EGFR", "format": "binding", "details": "2 μM each", "description": "as §1\nSimilarly, 4b (FIG. 11B, Example 1; afatinib derivative functionalized with coumarin) and 5a (FIG. 11C, Example 1; AMG-510 derivative functionalized with coumarin) were treated with EGFR and K-RAS^G12c respectively and measured the released coumarin fluorescence (FIG. 11E, 11F)."}, "EGFR [6]": {"biological_target": "T3, EGFR", "assay": "EGFR kinase activity assay", "format": "biochemical", "details": "read-out: IC50 against EGFR"}, "BTK kinase domain [7]": {"biological_target": "T1, BTK kinase domain", "assay": "Labeling experiments of Ibrutinib derivatives with BTK (ligand release, LC/MS)", "format": "binding", "details": "BTK 2 μM, 10 min, 25° C., pH 8", "protocol": "Binding experiments were performed in Tris 20 mM pH 8.0, 50 mM NaCl at room temperature. […] The reaction mixtures, at room temperature for various times, were injected into the LC/MS. For data analysis, the raw spectra were deconvoluted using a 20000:40000 Da window and 1 Da resolution. The labeling percentage for a compound was determined as the labeling of a specific compound (alone or together with other compounds) divided by the overall detected protein species.\nTo assess irreversible labeling and validate the proposed ligand release mechanism, the probes/compounds (2 μM) were incubated with recombinant BTK (2 μM) and monitored the reaction via intact protein liquid chromatography/mass spectrometry (LC/MS)."}, "[8]": {"biological_target": "SARS-CoV-2 papain like protease (PL^pro) (Severe acute respiratory syndrome coronavirus 2 (2019-nCoV) (SARS-CoV-2), UniProt P0DTD1)", "assay": "Labeling of PLpro (LC/MS)", "format": "binding", "details": "2 μM protein, 16h, pH 8"}, "BTK [9]": {"biological_target": "T2, BTK", "assay": "Fluorescence intensity measurements of labeling probes with BTK", "details": "4 μM competitor"}}, "note": "Like-named read-outs stand apart in the source and are kept apart here.", "data": [{"smiles": "C=C(COC(=O)Oc1ccc([N+](=O)[O-])cc1)C(=O)NCc1ccccc1", "note": "[Compound 1j, 2-(benzylcarbamoyl)allyl (4-nitrophenyl) carbonate]", "values": [{"measurement": "half-life at 100 μM", "setting": "physchem", "value": 54, "unit": "min"}]}, {"smiles": "C#CCCNC(=O)C(=C)COc1ccc2ccc(=O)oc2c1", "note": "[Compound 2a, N-(but-3-yn-1-yl)-2-(((2-oxo-2H-chromen-7-yl)oxy)methyl)acrylamide]", "values": [{"measurement": "proteomic reactivity (in-gel fluorescence)", "setting": "Mino cells", "value": "slightly higher reactivity than 2b"}]}, {"smiles": "C#CCCNC(=O)C(=C)COC(=O)c1ccccc1", "note": "[Compound 2c, 2-(but-3-yn-1-ylcarbamoyl)allyl benzoate]", "values": [{"measurement": "proteomic reactivity (in-gel fluorescence)", "setting": "Mino cells", "value": "completely inactive"}]}, {"smiles": "C=C(C)C(=O)N1CCC[C@@H](n2nc(-c3ccc(Oc4ccccc4)cc3)c3c(N)ncnc32)C1", "note": "[Compound 3a, (R)-1-(3-(4-amino-3-(4-phenoxyphenyl)-1H-pyrazolo[3,4-d]pyrimidin-1-yl)piperidin-1-yl)-2-methylprop-2-en-1-one]", "values": [{"measurement": "BHK t1/2", "setting": "BTK kinase domain [1]", "value": ">420", "unit": "min"}]}, {"smiles": "C=C(CN1CCCCC1)C(=O)N1CCC[C@@H](n2nc(-c3ccc(Oc4ccccc4)cc3)c3c(N)ncnc32)C1", "note": "[Compound 3c, (R)-1-(3-(4-amino-3-(4-phenoxyphenyl)-1H-pyrazolo[3,4-d]pyrimidin-1-yl)piperidin-1-yl)-2-(piperidin-1-ylmethyl)prop-2-en-1-one]", "values": [{"measurement": "BTK Substitution/Addition", "setting": "BTK kinase domain [2]", "value": "exclusively through addition"}, {"measurement": "IC50", "setting": "wild-type BTK; 0.6 nM BTK, 5 μM ATP", "value": 0.0001, "unit": "µM"}, {"measurement": "IC50", "setting": "wild-type BTK; unit μM", "value": "< 100", "unit": "µM"}]}, {"smiles": "C=C(CN(C)c1ccccc1)C(=O)N1CCC[C@@H](n2nc(-c3ccc(Oc4ccccc4)cc3)c3c(N)ncnc32)C1", "note": "[Compound 3d, (R)-1-(3-(4-amino-3-(4-phenoxyphenyl)-1H-pyrazolo[3,4-d]pyrimidin-1-yl)piperidin-1-yl)-2-((methyl(phenyl)amino)methyl)prop-2-en-1-one]", "values": [{"measurement": "BHK t1/2", "setting": "BTK kinase domain [2]; BTK labeling, 2 μM compound and 2 μM BTK at room temperature", "value": 47, "unit": "min"}, {"measurement": "BTK Substitution/Addition", "setting": "BTK kinase domain [2]", "value": "Substitution"}, {"measurement": "labeling of BTK through the substitution mechanism", "setting": "BTK kinase domain [2]", "value": 100, "unit": "%"}, {"measurement": "IC50", "setting": "wild-type BTK; 0.6 nM BTK, 5 μM ATP", "value": 0.0056, "unit": "µM"}]}, {"smiles": "C=C(CNCc1ccccc1)C(=O)N1CCC[C@@H](n2nc(-c3ccc(Oc4ccccc4)cc3)c3c(N)ncnc32)C1", "note": "[Compound 3e, (R)-1-(3-(4-amino-3-(4-phenoxyphenyl)-1H-pyrazolo[3,4-d]pyrimidin-1-yl)piperidin-1-yl)-2-((benzylamino)methyl)prop-2-en-1-one]", "values": [{"measurement": "BHK t1/2", "setting": "BTK kinase domain [1]; recombinant enzyme", "value": "<5", "unit": "min"}, {"measurement": "BTK Substitution/Addition", "setting": "BTK kinase domain [2]", "value": "exclusively through addition"}, {"measurement": "BTK labeling t1/2 faster than Ibrutinib", "setting": "BTK kinase domain [2]; relative to Ibrutinib", "value": 50, "unit": "%"}, {"measurement": "IC50", "setting": "wild-type BTK; 0.6 nM BTK, 5 μM ATP", "value": 0.0001, "unit": "µM"}, {"measurement": "IC50", "setting": "wild-type BTK; unit μM", "value": "< 100", "unit": "µM"}]}, {"smiles": "C=C(COC(C)=O)C(=O)N1CCC[C@@H](n2nc(-c3ccc(Oc4ccccc4)cc3)c3c(N)ncnc32)C1", "note": "[Compound 3g, (R)-2-(3-(4-amino-3-(4-phenoxyphenyl)-1H-pyrazolo[3,4-d]pyrimidin-1-yl)piperidine-1-carbonyl)allyl acetate]", "values": [{"measurement": "BTK Substitution/Addition", "setting": "BTK kinase domain [2]", "value": "Substitution"}, {"measurement": "labeling of BTK through the substitution mechanism", "setting": "BTK kinase domain [2]", "value": 100, "unit": "%"}, {"measurement": "IC50", "setting": "wild-type BTK; 0.6 nM BTK, 5 μM ATP", "value": 0.0001, "unit": "µM"}, {"measurement": "IC50", "setting": "wild-type BTK; unit μM", "value": "< 100", "unit": "µM"}]}, {"smiles": "C=C(COc1ccc2ccc(=O)oc2c1)C(=O)N1CCC[C@@H](n2nc(-c3ccc(Oc4ccccc4)cc3)c3c(N)ncnc32)C1", "note": "[Compound 3j, (R)-7-((2-(3-(4-amino-3-(4-phenoxyphenyl)-1H-pyrazolo[3,4-d]pyrimidin-1-yl)piperidine-1-carbonyl)allyl)oxy)-2H-chromen-2-one]", "values": [{"measurement": "fluorescence on incubation with BSA", "setting": "BSA", "value": "did not result in increased fluorescence"}, {"measurement": "increase of fluorescence intensity at 435 nm upon addition of BTK", "setting": "BTK [3]", "value": 30, "unit": "fold"}, {"measurement": "time to fluorescence saturation", "setting": "BTK [3]", "value": "≤ 10", "unit": "min"}, {"measurement": "labeling of BTK through the substitution mechanism", "setting": "BTK kinase domain [2]", "value": 100, "unit": "%"}]}, {"smiles": "C=C(COc1c(Cl)cc(C2(OC)OOC23[C@H]2C[C@@H]4C[C@@H](C[C@H]3C4)C2)cc1/C=C/C(=O)OC)C(=O)N1CCC[C@@H](n2nc(-c3ccc(Oc4ccccc4)cc3)c3c(N)ncnc32)C1", "note": "(stereo partly drawn) [Compound 3k, Methyl (E)-3-(2-((2-((R)-3-(4-amino-3-(4-phenoxyphenyl)-1H-pyrazolo[3,4-d]pyrimidin-1-yl)piperidine-1-carbonyl)allyl)oxy)-3-chloro-5-((1r,3r,5R,7R)-4′-methoxyspiro[adamantane-2,3′-[1,2]dioxetan]-4′-yl)phenyl)acrylate]", "values": [{"measurement": "time to maximum chemiluminescence signal", "setting": "BTK [4]; BTK 2 μM", "value": "≤ 20", "unit": "min"}]}, {"smiles": "C=C(COc1ccc2ccc(=O)oc2c1)C(=O)Nc1cc2c(Nc3ccc(F)c(Cl)c3)ncnc2cc1OC", "note": "[Compound 4b, N-(4-((3-chloro-4-fluorophenyl)amino)-7-methoxyquinazolin-6-yl)-2-(((2-oxo-2H-chromen-7-yl)oxy)methyl)acrylamide]", "values": [{"measurement": "released coumarin fluorescence with EGFR", "setting": "EGFR [5]", "value": "significant increase in fluorescence intensity"}, {"measurement": "IC50", "setting": "EGFR [6]", "value": 3.3, "unit": "nM"}]}, {"smiles": "C#CCCNC(=O)C(=C)CN1CCC(CNc2ncnc(N)c2-c2ccc(Oc3ccccc3)cc2)CC1", "note": "[Compound 7g]", "values": [{"measurement": "single labeling of BTK", "setting": "BTK kinase domain [7]", "value": 100, "unit": "%"}]}, {"smiles": "C=C(COC(=O)c1cc(OC)c(OC)c(OC)c1)C(=O)OCC", "note": "[Compound 7t]", "values": [{"measurement": "single labeling of PL^pro", "setting": "[8]", "value": 100, "unit": "%"}]}, {"smiles": "Nc1ncnc2c1c(-c1ccc(Oc3ccccc3)cc1)nn2[C@@H]1CCCNC1", "note": "[Ibr-H, reference compound]", "values": [{"measurement": "7m turn-on fluorescence after pre-incubation of BTK with competitor", "setting": "BTK [9]", "value": "eliminated the fluorescence"}, {"measurement": "3k luminescence after pre-incubation of BTK with competitor", "setting": "BTK [4]; 2 μM, 0.5 h pre-incubation", "value": "significant decrease in the luminescence detected"}]}]}
